Assay results from ChEMBL document CHEMBL1687815, “In vivo selection of a missense mutation in adeR and conversion of the novel blaOXA-164 gene into blaOXA-58 in carbapenem-resistant Acinetobacter baumannii isolates from a hospitalized patient” (2010).
Calls of active or inactive are those of the source.

Key:
Acinetobacter baumannii [1] = assay: Antimicrobial activity against Acinetobacter baumannii isolate E expressing beta-lactamase OXA-164 isolated from tracheal secretion of patient by vitek 2 system
Acinetobacter baumannii [2] = assay: Antimicrobial activity against Acinetobacter baumannii isolate C expressing beta-lactamase OXA-164 isolated from tracheal secretion of patient in presence of Tazobactam by vitek 2 system
Acinetobacter baumannii [3] = assay: Antimicrobial activity against Acinetobacter baumannii isolate D expressing beta-lactamase OXA-164 isolated from tracheal secretion of patient in presence of Tazobactam by vitek 2 system
Acinetobacter baumannii [4] = assay: Antimicrobial activity against Acinetobacter baumannii isolate A expressing beta-lactamase OXA-164 isolated from tracheal secretion of patient in presence of Tazobactam by vitek 2 system
Acinetobacter baumannii [5] = assay: Antimicrobial activity against Acinetobacter baumannii isolate B expressing beta-lactamase OXA-164 isolated from tracheal secretion of patient by vitek 2 system
Acinetobacter baumannii [6] = assay: Antimicrobial activity against Acinetobacter baumannii isolate H expressing beta-lactamase OXA-58 isolated from tracheal secretion of patient by vitek 2 system
Acinetobacter baumannii [7] = assay: Antimicrobial activity against Acinetobacter baumannii isolate C expressing beta-lactamase OXA-164 isolated from tracheal secretion of patient by vitek 2 system
Acinetobacter baumannii [8] = assay: Antimicrobial activity against Acinetobacter baumannii isolate K expressing beta-lactamase OXA-58 isolated from blood culture of patient in presence of Tazobactam by vitek 2 system
Acinetobacter baumannii [9] = assay: Antimicrobial activity against Acinetobacter baumannii isolate L expressing beta-lactamase OXA-58 isolated from tracheal secretion of patient in presence of Tazobactam by vitek 2 system
Acinetobacter baumannii [10] = assay: Antimicrobial activity against Acinetobacter baumannii isolate H expressing beta-lactamase OXA-58 isolated from tracheal secretion of patient in presence of Tazobactam by vitek 2 system
Acinetobacter baumannii [11] = assay: Antimicrobial activity against Acinetobacter baumannii isolate F expressing beta-lactamase OXA-164 isolated from tracheostoma of patient by vitek 2 system
Acinetobacter baumannii [12] = assay: Antimicrobial activity against Acinetobacter baumannii isolate G expressing beta-lactamase OXA-58 isolated from tracheal secretion of patient in presence of Tazobactam by vitek 2 system
Acinetobacter baumannii [13] = assay: Antimicrobial activity against Acinetobacter baumannii isolate G expressing beta-lactamase OXA-58 isolated from tracheal secretion of patient by vitek 2 system
Acinetobacter baumannii [14] = assay: Antimicrobial activity against Acinetobacter baumannii isolate L expressing beta-lactamase OXA-58 isolated from tracheal secretion of patient by vitek 2 system
Acinetobacter baumannii [15] = assay: Antimicrobial activity against Acinetobacter baumannii isolate D expressing beta-lactamase OXA-164 isolated from tracheal secretion of patient by vitek 2 system
Acinetobacter baumannii [16] = assay: Antimicrobial activity against Acinetobacter baumannii isolate F expressing beta-lactamase OXA-164 isolated from tracheostoma of patient in presence of Tazobactam by vitek 2 system
Acinetobacter baumannii [17] = assay: Antimicrobial activity against Acinetobacter baumannii isolate E expressing beta-lactamase OXA-164 isolated from tracheal secretion of patient in presence of Tazobactam by vitek 2 system
Acinetobacter baumannii [18] = assay: Antimicrobial activity against Acinetobacter baumannii isolate J expressing beta-lactamase OXA-58 isolated from bedsore in presence of Tazobactam by vitek 2 system
Acinetobacter baumannii [19] = assay: Antimicrobial activity against Acinetobacter baumannii isolate J expressing beta-lactamase OXA-58 isolated from bedsore by vitek 2 system
Acinetobacter baumannii [20] = assay: Antimicrobial activity against Acinetobacter baumannii isolate A expressing beta-lactamase OXA-164 isolated from tracheal secretion of patient by vitek 2 system
Acinetobacter baumannii [21] = assay: Antimicrobial activity against Acinetobacter baumannii isolate M expressing beta-lactamase OXA-58 isolated from tracheal secretion of patient in presence of Tazobactam by vitek 2 system
Acinetobacter baumannii [22] = assay: Antimicrobial activity against Acinetobacter baumannii isolate I expressing beta-lactamase OXA-58 isolated from tracheal secretion of patient in presence of Tazobactam by vitek 2 system
Acinetobacter baumannii [23] = assay: Antimicrobial activity against Acinetobacter baumannii isolate K expressing beta-lactamase OXA-58 isolated from blood culture of patient by vitek 2 system
Acinetobacter baumannii [24] = assay: Antimicrobial activity against Acinetobacter baumannii isolate I expressing beta-lactamase OXA-58 isolated from tracheal secretion of patient by vitek 2 system
Acinetobacter baumannii [25] = assay: Antimicrobial activity against Acinetobacter baumannii isolate M expressing beta-lactamase OXA-58 isolated from tracheal secretion of patient by vitek 2 system
Acinetobacter baumannii [26] = assay: Antimicrobial activity against Acinetobacter baumannii isolate B expressing beta-lactamase OXA-164 isolated from tracheal secretion of patient in presence of Tazobactam by vitek 2 system
Acinetobacter baumannii [27] = assay: Antimicrobial activity against Acinetobacter baumannii isolate A expressing beta-lactamase OXA-164 isolated from tracheal secretion of patient in presence of Sulbactam by vitek 2 system
Acinetobacter baumannii [28] = assay: Antimicrobial activity against Acinetobacter baumannii isolate K expressing beta-lactamase OXA-58 isolated from blood culture of patient in presence of Sulbactam by vitek 2 system
Acinetobacter baumannii [29] = assay: Antimicrobial activity against Acinetobacter baumannii isolate E expressing beta-lactamase OXA-164 isolated from tracheal secretion of patient in presence of Sulbactam by vitek 2 system
Acinetobacter baumannii [30] = assay: Antimicrobial activity against Acinetobacter baumannii isolate H expressing beta-lactamase OXA-58 isolated from tracheal secretion of patient in presence of Sulbactam by vitek 2 system
Acinetobacter baumannii [31] = assay: Antimicrobial activity against Acinetobacter baumannii isolate B expressing beta-lactamase OXA-164 isolated from tracheal secretion of patient in presence of Sulbactam by vitek 2 system
Acinetobacter baumannii [32] = assay: Antimicrobial activity against Acinetobacter baumannii isolate C expressing beta-lactamase OXA-164 isolated from tracheal secretion of patient in presence of Sulbactam by vitek 2 system
Acinetobacter baumannii [33] = assay: Antimicrobial activity against Acinetobacter baumannii isolate D expressing beta-lactamase OXA-164 isolated from tracheal secretion of patient in presence of Sulbactam by vitek 2 system
Acinetobacter baumannii [34] = assay: Antimicrobial activity against Acinetobacter baumannii isolate J expressing beta-lactamase OXA-58 isolated from bedsore in presence of Sulbactam by vitek 2 system
Acinetobacter baumannii [35] = assay: Antimicrobial activity against Acinetobacter baumannii isolate M expressing beta-lactamase OXA-58 isolated from tracheal secretion of patient in presence of Sulbactam by vitek 2 system
Acinetobacter baumannii [36] = assay: Antimicrobial activity against Acinetobacter baumannii isolate G expressing beta-lactamase OXA-58 isolated from tracheal secretion of patient in presence of Sulbactam by vitek 2 system
Acinetobacter baumannii [37] = assay: Antimicrobial activity against Acinetobacter baumannii isolate F expressing beta-lactamase OXA-164 isolated from tracheostoma of patient in presence of Sulbactam by vitek 2 system
Acinetobacter baumannii [38] = assay: Antimicrobial activity against Acinetobacter baumannii isolate L expressing beta-lactamase OXA-58 isolated from tracheal secretion of patient in presence of Sulbactam by vitek 2 system
Acinetobacter baumannii [39] = assay: Antimicrobial activity against Acinetobacter baumannii isolate I expressing beta-lactamase OXA-58 isolated from tracheal secretion of patient in presence of Sulbactam by vitek 2 system

Measured: MIC

CCN1CCN(C(=O)N[C@@H](C(=O)N[C@@H]2C(=O)N3[C@@H]2SC(C)(C)[C@@H]3C(=O)O)c2ccccc2)C(=O)C1=O
not listed: Acinetobacter baumannii [27] | Acinetobacter baumannii [28] | Acinetobacter baumannii [29] | Acinetobacter baumannii [30] | Acinetobacter baumannii [31] | Acinetobacter baumannii [32] | Acinetobacter baumannii [33] | Acinetobacter baumannii [34] | Acinetobacter baumannii [35] | Acinetobacter baumannii [36] | Acinetobacter baumannii [37] | Acinetobacter baumannii [38] | Acinetobacter baumannii [39]
inactive: all other assays above

CC1(C)S[C@@H]2[C@H](NC(=O)[C@H](N)c3ccccc3)C(=O)N2[C@H]1C(=O)O
inactive: Acinetobacter baumannii [27] | Acinetobacter baumannii [28] | Acinetobacter baumannii [29] | Acinetobacter baumannii [30] | Acinetobacter baumannii [31] | Acinetobacter baumannii [32] | Acinetobacter baumannii [33] | Acinetobacter baumannii [34] | Acinetobacter baumannii [35] | Acinetobacter baumannii [36] | Acinetobacter baumannii [37] | Acinetobacter baumannii [38] | Acinetobacter baumannii [39]
